Reference: patent US20150307520A1, “NOVEL HETEROARYL AND HETEROCYCLE COMPOUNDS, COMPOSITIONS AND METHODS THEREOF” (HUTCHISON MEDIPHARMA LIMITED, priority 2012, published 2015)
Blank lines part the entries; values can stand above or below the compound they belong to.

Tests used:
Format in all cases: biochemical
p110β/p85α = p110β/p85α (Homo sapiens, UniProt P42338); experiment: Transcreener KINASE Assay, kinase inhibition of p110β/p85α; settings: for PI3Kβ IH % @ 1 uM: 1 uM test compound; for IC50: read-out: PI3Kβ IC50
Sequence of p110β/p85α (P42338 whole entry): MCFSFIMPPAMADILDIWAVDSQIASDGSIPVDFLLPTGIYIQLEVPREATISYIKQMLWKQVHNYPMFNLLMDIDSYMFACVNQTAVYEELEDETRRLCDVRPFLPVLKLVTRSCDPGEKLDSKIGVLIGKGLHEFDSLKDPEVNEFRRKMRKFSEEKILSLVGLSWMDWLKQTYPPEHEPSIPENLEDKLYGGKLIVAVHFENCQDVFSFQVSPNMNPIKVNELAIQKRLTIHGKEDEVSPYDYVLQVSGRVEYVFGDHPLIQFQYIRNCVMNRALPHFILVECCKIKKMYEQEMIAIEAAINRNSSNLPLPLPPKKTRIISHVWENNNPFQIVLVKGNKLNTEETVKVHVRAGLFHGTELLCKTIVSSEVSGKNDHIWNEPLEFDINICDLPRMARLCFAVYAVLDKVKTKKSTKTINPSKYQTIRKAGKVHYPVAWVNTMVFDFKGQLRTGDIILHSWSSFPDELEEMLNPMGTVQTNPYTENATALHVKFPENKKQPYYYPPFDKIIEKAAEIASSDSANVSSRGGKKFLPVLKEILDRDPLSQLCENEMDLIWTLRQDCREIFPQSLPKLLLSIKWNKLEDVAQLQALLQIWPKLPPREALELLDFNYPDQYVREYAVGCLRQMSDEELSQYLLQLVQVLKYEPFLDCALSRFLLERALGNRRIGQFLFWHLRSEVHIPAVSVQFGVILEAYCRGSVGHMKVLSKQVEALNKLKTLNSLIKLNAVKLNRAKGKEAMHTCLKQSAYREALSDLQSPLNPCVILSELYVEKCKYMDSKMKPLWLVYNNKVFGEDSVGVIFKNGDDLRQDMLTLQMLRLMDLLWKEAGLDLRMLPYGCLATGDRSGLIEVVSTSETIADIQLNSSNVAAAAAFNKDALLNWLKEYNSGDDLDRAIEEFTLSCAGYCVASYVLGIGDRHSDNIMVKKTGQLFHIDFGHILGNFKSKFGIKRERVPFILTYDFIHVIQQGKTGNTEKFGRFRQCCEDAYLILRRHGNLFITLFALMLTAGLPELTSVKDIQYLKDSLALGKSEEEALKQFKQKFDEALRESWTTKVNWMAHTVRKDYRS
Sequence of p110β/p85α (P27986 2-724 partner): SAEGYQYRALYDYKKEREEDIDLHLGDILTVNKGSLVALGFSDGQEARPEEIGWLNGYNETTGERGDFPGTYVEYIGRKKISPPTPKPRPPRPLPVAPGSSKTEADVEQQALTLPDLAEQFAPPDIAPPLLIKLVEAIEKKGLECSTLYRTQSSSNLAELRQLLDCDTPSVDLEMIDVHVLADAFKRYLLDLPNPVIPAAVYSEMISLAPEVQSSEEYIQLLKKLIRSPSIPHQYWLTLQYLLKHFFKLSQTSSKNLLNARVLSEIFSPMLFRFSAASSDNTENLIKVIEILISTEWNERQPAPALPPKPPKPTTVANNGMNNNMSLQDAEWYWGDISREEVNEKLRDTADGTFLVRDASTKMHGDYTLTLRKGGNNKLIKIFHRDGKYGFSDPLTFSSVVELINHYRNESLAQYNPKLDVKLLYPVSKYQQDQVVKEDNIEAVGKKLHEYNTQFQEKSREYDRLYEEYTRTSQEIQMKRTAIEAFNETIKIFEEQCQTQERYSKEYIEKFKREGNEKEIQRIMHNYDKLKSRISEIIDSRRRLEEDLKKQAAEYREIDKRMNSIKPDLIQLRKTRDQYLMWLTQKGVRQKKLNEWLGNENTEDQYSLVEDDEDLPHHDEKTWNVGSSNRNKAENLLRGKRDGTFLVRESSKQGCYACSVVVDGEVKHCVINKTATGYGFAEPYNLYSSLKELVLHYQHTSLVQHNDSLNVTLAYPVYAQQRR
Description: (§1) PI3K kinases including p110α/p85α, p110δ/p85α and p110γ are purchased from Invitrogen, and p110β/p85α is from Millipore.
(§2) Primary screening data and IC50 values are measured using Transcreener™ KINASE Assay (Bellbrook, Catalog #3003-10K). […] It is a universal, homogenous, high throughput screening (HTS) technology using a far-red, competitive fluorescence polarization immunoassay based on the detection of ADP to monitor the activity of enzymes that catalyze group transfer reactions. Briefly, the Transcreener KINASE Assay is designed as a simple two-part, endpoint assay.
(§3) In the first step, the 25 ul kinase reaction is performed by preparing a reaction mixture containing 5 ul test compound (2% DMSO final concentration), 10 ul kinase, buffer (50 mM HEPES, 100 mM NaCl, 1 mM EGTA, 0.03% CHAPS, 3 mM MgCl2, and freshly supplemented 1 mM DTT), and 10 ul 30 uM PIP2/10 uM ATP. The plate is sealed and incubated for 80 min at room temperature. Next, 25 ul ADP detection mix is added per well. The plate is sealed again and incubated for 60 min at room temperature, and then measure fluorescence polarization by Tecan Infinite F500 Reader.
(§4) Data is analyzed and IC50s are generated using the add-in software for Microsoft Excel, Xlfit™ (version 2.0). IH %=(ADP amount under 2% DMSO-ADP amount under test compound)/ADP amount under 2% DMSO.

p110δ/p85α = p110δ/p85α (Homo sapiens, UniProt O00329); experiment: Transcreener KINASE Assay, kinase inhibition of p110δ/p85α; settings: for PI3Kδ IH % @ 1 uM: 1 uM test compound; for IC50: read-out: PI3Kδ IC50
Sequence of p110δ/p85α (O00329 whole entry): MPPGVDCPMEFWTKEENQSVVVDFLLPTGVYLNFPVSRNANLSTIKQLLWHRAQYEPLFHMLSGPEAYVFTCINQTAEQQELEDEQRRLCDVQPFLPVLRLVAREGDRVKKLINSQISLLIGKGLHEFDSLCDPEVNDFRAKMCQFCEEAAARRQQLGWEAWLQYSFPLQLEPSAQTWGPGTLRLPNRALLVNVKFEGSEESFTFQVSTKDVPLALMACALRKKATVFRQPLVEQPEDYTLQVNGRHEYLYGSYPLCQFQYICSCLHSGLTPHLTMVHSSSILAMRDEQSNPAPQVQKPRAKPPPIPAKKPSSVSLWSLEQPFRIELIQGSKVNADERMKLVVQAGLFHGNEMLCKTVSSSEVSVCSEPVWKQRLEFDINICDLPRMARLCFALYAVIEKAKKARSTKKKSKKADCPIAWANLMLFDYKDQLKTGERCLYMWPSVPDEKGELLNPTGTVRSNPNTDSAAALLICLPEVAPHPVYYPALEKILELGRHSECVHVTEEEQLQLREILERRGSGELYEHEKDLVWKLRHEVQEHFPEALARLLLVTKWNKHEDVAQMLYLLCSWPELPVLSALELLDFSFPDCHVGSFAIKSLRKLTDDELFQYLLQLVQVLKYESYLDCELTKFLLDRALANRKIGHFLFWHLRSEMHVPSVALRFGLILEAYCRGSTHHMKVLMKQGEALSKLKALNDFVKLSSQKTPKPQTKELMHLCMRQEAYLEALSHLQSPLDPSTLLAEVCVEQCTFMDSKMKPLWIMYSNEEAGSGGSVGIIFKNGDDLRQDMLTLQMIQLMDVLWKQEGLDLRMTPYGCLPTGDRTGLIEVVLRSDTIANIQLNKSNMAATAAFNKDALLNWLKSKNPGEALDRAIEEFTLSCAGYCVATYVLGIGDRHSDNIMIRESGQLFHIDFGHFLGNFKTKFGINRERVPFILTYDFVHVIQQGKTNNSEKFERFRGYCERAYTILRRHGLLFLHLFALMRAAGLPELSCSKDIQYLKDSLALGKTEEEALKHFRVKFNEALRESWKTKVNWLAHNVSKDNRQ
Sequence of p110δ/p85α (P27986 whole entry partner): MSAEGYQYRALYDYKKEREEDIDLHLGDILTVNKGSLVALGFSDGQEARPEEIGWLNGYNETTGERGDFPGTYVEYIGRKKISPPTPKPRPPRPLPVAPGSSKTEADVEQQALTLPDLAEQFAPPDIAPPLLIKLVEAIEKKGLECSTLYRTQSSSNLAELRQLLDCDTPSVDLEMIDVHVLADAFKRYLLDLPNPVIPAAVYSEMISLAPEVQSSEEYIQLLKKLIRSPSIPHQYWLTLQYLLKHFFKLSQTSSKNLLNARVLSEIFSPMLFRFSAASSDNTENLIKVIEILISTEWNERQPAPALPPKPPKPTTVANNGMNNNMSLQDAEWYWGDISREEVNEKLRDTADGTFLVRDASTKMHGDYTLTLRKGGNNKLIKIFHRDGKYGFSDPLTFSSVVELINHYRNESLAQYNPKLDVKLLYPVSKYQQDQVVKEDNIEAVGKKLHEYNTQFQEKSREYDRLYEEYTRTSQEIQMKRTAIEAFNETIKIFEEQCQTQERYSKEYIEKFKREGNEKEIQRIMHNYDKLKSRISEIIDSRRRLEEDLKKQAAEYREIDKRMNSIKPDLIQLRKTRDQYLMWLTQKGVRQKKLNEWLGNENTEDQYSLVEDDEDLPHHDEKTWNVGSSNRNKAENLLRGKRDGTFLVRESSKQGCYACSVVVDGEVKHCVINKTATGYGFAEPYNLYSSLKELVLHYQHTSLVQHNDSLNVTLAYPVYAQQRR
Description: as §1, §2, §3, §4

p110γ = p110γ (Homo sapiens, UniProt P48736); experiment: Transcreener KINASE Assay, kinase inhibition of p110γ; settings: for PI3Kγ IH % @ 1 uM: 1 uM test compound; for IC50: read-out: PI3Kγ IC50
Sequence of p110γ (P48736 whole entry): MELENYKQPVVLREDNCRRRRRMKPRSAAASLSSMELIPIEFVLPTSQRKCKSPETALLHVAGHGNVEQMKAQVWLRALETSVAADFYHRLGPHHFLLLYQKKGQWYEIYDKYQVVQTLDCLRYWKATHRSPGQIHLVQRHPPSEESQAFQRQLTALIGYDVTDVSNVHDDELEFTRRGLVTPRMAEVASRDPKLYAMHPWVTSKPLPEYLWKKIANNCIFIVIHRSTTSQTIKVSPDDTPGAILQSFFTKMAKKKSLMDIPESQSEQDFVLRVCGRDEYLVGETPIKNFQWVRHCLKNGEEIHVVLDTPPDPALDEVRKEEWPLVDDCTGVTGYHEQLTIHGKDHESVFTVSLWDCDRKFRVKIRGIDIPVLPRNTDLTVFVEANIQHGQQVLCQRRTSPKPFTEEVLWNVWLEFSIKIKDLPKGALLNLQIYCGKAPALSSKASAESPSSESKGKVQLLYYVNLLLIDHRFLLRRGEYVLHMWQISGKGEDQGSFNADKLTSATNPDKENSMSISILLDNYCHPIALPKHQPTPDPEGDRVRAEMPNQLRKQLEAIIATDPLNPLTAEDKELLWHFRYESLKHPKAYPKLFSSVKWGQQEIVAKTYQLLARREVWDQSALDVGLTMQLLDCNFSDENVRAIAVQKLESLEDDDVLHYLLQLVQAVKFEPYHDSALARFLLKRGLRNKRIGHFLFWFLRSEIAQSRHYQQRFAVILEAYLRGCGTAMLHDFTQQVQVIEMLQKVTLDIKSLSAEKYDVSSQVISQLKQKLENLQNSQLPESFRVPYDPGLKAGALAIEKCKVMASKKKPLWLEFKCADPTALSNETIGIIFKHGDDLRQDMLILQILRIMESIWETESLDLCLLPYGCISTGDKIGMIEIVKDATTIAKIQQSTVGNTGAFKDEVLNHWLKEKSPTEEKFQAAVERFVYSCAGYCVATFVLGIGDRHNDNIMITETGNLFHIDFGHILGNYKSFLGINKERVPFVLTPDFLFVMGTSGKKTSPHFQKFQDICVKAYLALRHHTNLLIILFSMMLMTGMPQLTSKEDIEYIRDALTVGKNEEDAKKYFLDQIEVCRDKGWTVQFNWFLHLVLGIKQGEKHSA
Description: Kinase Inhibition assays of p110α/p85α, p110β/p85α, p110δ/p85α and p110γ PI3K kinases including p110α/p85α, p110δ/p85α and p110γ are purchased from Invitrogen, and p110β/p85α is from Millipore. Primary screening data and IC50 values are measured using Transcreener™ KINASE Assay (Bellbrook, Catalog #3003-10K). […] It is a universal, homogenous, high throughput screening (HTS) technology using a far-red, competitive fluorescence polarization immunoassay based on the detection of ADP to monitor the activity of enzymes that catalyze group transfer reactions. Briefly, the Transcreener KINASE Assay is designed as a simple two-part, endpoint assay. […] The plate is sealed and incubated for 80 min at room temperature. Next, 25 ul ADP detection mix is added per well. The plate is sealed again and incubated for 60 min at room temperature, and then measure fluorescence polarization by Tecan Infinite F500 Reader. Data is analyzed and IC50s are generated using the add-in software for Microsoft Excel, Xlfit™ (version 2.0).

SMILES: N#Cc1c(N)ncnc1N1CC[C@H]1c1nn2cccc2c(=O)n1-c1ccccc1 [Compound 8]
PI3Kβ IH % @ 1 uM (p110β/p85α): 33.3%
PI3Kδ IH % @ 1 uM (p110δ/p85α): 76.2%
IC50 (p110δ/p85α): 272 nM
PI3Kγ IH % @ 1 uM (p110γ): 40.2%

SMILES: Nc1ncnc(N2CCC[C@H]2c2nn3ccc(Cl)c3c(=O)n2-c2ccccc2)c1Cl [Compound 27]
PI3Kβ IH % @ 1 uM (p110β/p85α): 82.6%
IC50 (p110β/p85α): 100 nM
PI3Kδ IH % @ 1 uM (p110δ/p85α): >100%
IC50 (p110δ/p85α): 3 nM
PI3Kγ IH % @ 1 uM (p110γ): 92.7%
IC50 (p110γ): 51 nM

SMILES: COc1cccc(-n2c([C@@H]3CCN3c3ncnc4[nH]cnc34)nn3ccc(Cl)c3c2=O)c1 [Compound 33]
PI3Kβ IH % @ 1 uM (p110β/p85α): −3.1%
PI3Kδ IH % @ 1 uM (p110δ/p85α): 71.9%
IC50 (p110δ/p85α): 212 nM
PI3Kγ IH % @ 1 uM (p110γ): 63.7%

SMILES: N#Cc1c[nH]c2ncnc(N3CC[C@H]3c3nn4ccc(Cl)c4c(=O)n3-c3ccc(F)cc3)c12 [Compound 37]
PI3Kβ IH % @ 1 uM (p110β/p85α): 30.6%
PI3Kδ IH % @ 1 uM (p110δ/p85α): 81.2%
PI3Kγ IH % @ 1 uM (p110γ): 83.3%
IC50 (p110γ): 89 nM

SMILES: N#Cc1cccc(-n2c([C@@H]3CCCN3c3ncnc4[nH]cc(C#N)c34)nn3ccc(Cl)c3c2=O)c1 [Compound 39]
PI3Kβ IH % @ 1 uM (p110β/p85α): 20.7%
PI3Kδ IH % @ 1 uM (p110δ/p85α): 94.2%
PI3Kγ IH % @ 1 uM (p110γ): 16.5%

SMILES: N#Cc1cccc(-n2c([C@@H]3CCCN3c3ncnc4[nH]cnc34)nn3ccc(Cl)c3c2=O)c1 [Compound 40]
PI3Kβ IH % @ 1 uM (p110β/p85α): 19.8%
PI3Kδ IH % @ 1 uM (p110δ/p85α): 74.0%
PI3Kγ IH % @ 1 uM (p110γ): 6.5%

SMILES: O=c1c2c(Cl)ccn2nc([C@@H]2CCCN2c2ncnc3[nH]cnc23)n1-c1ccc(F)cc1 [Compound 41]
PI3Kβ IH % @ 1 uM (p110β/p85α): 80.2%
IC50 (p110β/p85α): 66 nM
PI3Kδ IH % @ 1 uM (p110δ/p85α): 91.7%
IC50 (p110δ/p85α): 6 nM
PI3Kγ IH % @ 1 uM (p110γ): >100%
IC50 (p110γ): 21 nM

SMILES: Cc1ccn2nc([C@@H]3CCCN3c3ncnc(N)c3Cl)n(-c3ccccc3)c(=O)c12 [Compound 45]
PI3Kβ IH % @ 1 uM (p110β/p85α): 71.9%
IC50 (p110β/p85α): 795 nM
PI3Kδ IH % @ 1 uM (p110δ/p85α): 100%
PI3Kγ IH % @ 1 uM (p110γ): 80.9%
IC50 (p110γ): 172 nM

SMILES: N#Cc1c[nH]c2ncnc(N3CC[C@H]3c3nn4ccc(F)c4c(=O)n3-c3ccccc3)c12 [Compound 46]
PI3Kβ IH % @ 1 uM (p110β/p85α): 33.8%
PI3Kδ IH % @ 1 uM (p110δ/p85α): >100%
IC50 (p110δ/p85α): 14 nM
PI3Kγ IH % @ 1 uM (p110γ): 68.1%

SMILES: O=c1c2c(Cl)ccn2nc([C@@H]2C[C@@H](F)CN2c2ncnc3[nH]cnc23)n1-c1ccccc1 [Compound 47]
PI3Kβ IH % @ 1 uM (p110β/p85α): 47.3%
PI3Kδ IH % @ 1 uM (p110δ/p85α): >100%
IC50 (p110δ/p85α): 26 nM
PI3Kγ IH % @ 1 uM (p110γ): 84.7%
IC50 (p110γ): 152 nM

SMILES: N#Cc1c[nH]c2ncnc(N3C[C@H](F)C[C@H]3c3nn4ccc(Cl)c4c(=O)n3-c3ccccc3)c12 [Compound 48]
PI3Kβ IH % @ 1 uM (p110β/p85α): 69.7%
IC50 (p110β/p85α): 501 nM
PI3Kδ IH % @ 1 uM (p110δ/p85α): 98.4%
IC50 (p110δ/p85α): 4 nM
PI3Kγ IH % @ 1 uM (p110γ): 86.1%
IC50 (p110γ): 58 nM

SMILES: Nc1nc(N2CCC[C@H]2c2nn3ccc(Cl)c3c(=O)n2-c2ccccc2)ncc1C(F)(F)F [Compound 49]
PI3Kβ IH % @ 1 uM (p110β/p85α): −4.8%
PI3Kδ IH % @ 1 uM (p110δ/p85α): 8.4%
PI3Kγ IH % @ 1 uM (p110γ): 8.9%

SMILES: Nc1ncc(C(F)(F)F)c(N2CCC[C@H]2c2nn3ccc(Cl)c3c(=O)n2-c2ccccc2)n1 [Compound 50]
PI3Kβ IH % @ 1 uM (p110β/p85α): 4.4%
PI3Kδ IH % @ 1 uM (p110δ/p85α): >100%
IC50 (p110δ/p85α): 29 nM
PI3Kγ IH % @ 1 uM (p110γ): 89.3%
IC50 (p110γ): 149 nM

Second part, the compound after the results:

PI3Kβ IH % @ 1 uM (p110β/p85α): 55.9%
PI3Kδ IH % @ 1 uM (p110δ/p85α): 98.8%
IC50 (p110δ/p85α): 17 nM
PI3Kγ IH % @ 1 uM (p110γ): 82.3%
IC50 (p110γ): 105 nM
SMILES: CC(=O)c1cnc(N)nc1N[C@H](C)c1cc2ncc(Cl)n2c(=O)n1-c1ccccc1 (single isomer, unassigned) [Compound 448]

PI3Kβ IH % @ 1 uM (p110β/p85α): 87.2%
PI3Kδ IH % @ 1 uM (p110δ/p85α): 96.1%
PI3Kγ IH % @ 1 uM (p110γ): 97.8%
SMILES: CC(Nc1nc(N)ncc1C#N)c1cn2ccc(F)c2c(=O)n1-c1ccccc1 (single isomer, unassigned) [Compound 449]

PI3Kβ IH % @ 1 uM (p110β/p85α): 76.9%
PI3Kδ IH % @ 1 uM (p110δ/p85α): 99.3%
PI3Kγ IH % @ 1 uM (p110γ): 98.6%
SMILES: CC(Nc1ncnc2[nH]cc(F)c12)c1cc2ncc(Cl)n2c(=O)n1-c1ccccc1 (single isomer, unassigned) [Compound 450]

PI3Kβ IH % @ 1 uM (p110β/p85α): 4.2%
PI3Kδ IH % @ 1 uM (p110δ/p85α): 96.4%
PI3Kγ IH % @ 1 uM (p110γ): 40.5%
SMILES: CC(Nc1ncnc2[nH]cc(F)c12)c1cc2ncc(Cl)n2c(=O)n1-c1ccccc1 (single isomer, unassigned) [Compound 451]

PI3Kβ IH % @ 1 uM (p110β/p85α): 97.0%
PI3Kδ IH % @ 1 uM (p110δ/p85α): >100%
PI3Kγ IH % @ 1 uM (p110γ): 92.5%
SMILES: CC(=O)c1cnc(N)nc1NC(C)c1cn2ccc(F)c2c(=O)n1-c1ccccc1 (single isomer, unassigned) [Compound 452]

PI3Kβ IH % @ 1 uM (p110β/p85α): 88.3%
IC50 (p110β/p85α): 22 nM
PI3Kδ IH % @ 1 uM (p110δ/p85α): >100%
IC50 (p110δ/p85α): 0.1 nM
PI3Kγ IH % @ 1 uM (p110γ): >100%
IC50 (p110γ): 6 nM
SMILES: CC(=O)c1cnc(N)nc1N1CC(C)(C)C1c1nn2ccc(Cl)c2c(=O)n1-c1ccccc1 (stereo in doubt) [Compound 484, (R)-2-(1-(5-acetyl-2-aminopyrimidin-4-yl)-3,3-dimethylazetidin-2-yl)-5-chloro-3-phenylpyrrolo[2,1-f][1,2,4]triazin-4(3H)-one]

PI3Kβ IH % @ 1 uM (p110β/p85α): −7.4%
PI3Kδ IH % @ 1 uM (p110δ/p85α): 80.1%
IC50 (p110δ/p85α): 343 nM
PI3Kγ IH % @ 1 uM (p110γ): 89.1%
IC50 (p110γ): 293 nM
SMILES: O=c1c2c(C3CC3)ccn2nc([C@@H]2CCCN2c2ncnc3[nH]cnc23)n1-c1ccccc1 [Compound 51]

PI3Kβ IH % @ 1 uM (p110β/p85α): 8.8%
PI3Kδ IH % @ 1 uM (p110δ/p85α): 87.2%
IC50 (p110δ/p85α): 110 nM
PI3Kγ IH % @ 1 uM (p110γ): 89.3%
IC50 (p110γ): 107 nM
SMILES: N#Cc1c[nH]c2ncnc(N3CCC[C@H]3c3nn4ccc(C5CC5)c4c(=O)n3-c3ccccc3)c12 [Compound 52]

PI3Kβ IH % @ 1 uM (p110β/p85α): −11.0%
PI3Kδ IH % @ 1 uM (p110δ/p85α): 68.8%
PI3Kγ IH % @ 1 uM (p110γ): 86.4%
IC50 (p110γ): 35 nM
SMILES: Nc1nc(N2CCC[C@H]2c2nn3ccc(C4CC4)c3c(=O)n2-c2ccccc2)c2nc[nH]c2n1 [Compound 53]

PI3Kβ IH % @ 1 uM (p110β/p85α): 26.0%
PI3Kδ IH % @ 1 uM (p110δ/p85α): 90.1%
IC50 (p110δ/p85α): 207 nM
PI3Kγ IH % @ 1 uM (p110γ): 11.9%
SMILES: Nc1nc2cccc(N3CCC[C@H]3c3nn4ccc(Cl)c4c(=O)n3-c3ccccc3)n2n1 [Compound 54]

PI3Kβ IH % @ 1 uM (p110β/p85α): 23.8%
PI3Kδ IH % @ 1 uM (p110δ/p85α): 97.6%
IC50 (p110δ/p85α): 8 nM
PI3Kγ IH % @ 1 uM (p110γ): 99.5%
IC50 (p110γ): 67 nM
SMILES: N#Cc1c[nH]c2ncnc(N3CC[C@H]3c3nn4ccc(Br)c4c(=O)n3-c3ccccc3)c12 [Compound 55]

PI3Kβ IH % @ 1 uM (p110β/p85α): 21.7%
PI3Kδ IH % @ 1 uM (p110δ/p85α): 91.1%
PI3Kγ IH % @ 1 uM (p110γ): 83.9%
SMILES: O=c1c2c(Br)ccn2nc([C@@H]2CCN2c2ncnc3[nH]cnc23)n1-c1ccccc1 [Compound 56]

PI3Kβ IH % @ 1 uM (p110β/p85α): 37.1%
PI3Kδ IH % @ 1 uM (p110δ/p85α): 98.2%
IC50 (p110δ/p85α): 13 nM
PI3Kγ IH % @ 1 uM (p110γ): 88.3%
IC50 (p110γ): 239 nM
SMILES: O=c1c2c(Cl)ccn2nc([C@@H]2CC(F)(F)CN2c2ncnc3[nH]cnc23)n1-c1ccccc1 [Compound 57]
